# Reference: ChEMBL document CHEMBL4507311, “Data for DCP probe A-1155463” (2021)
# Calls of active or inactive are those of the source. The calls are words filed in the database; no cut-off is given here.
# Key:
# [1] = target: Serine/threonine-protein kinase 17A (Homo sapiens) (UniProt Q9UEE5); conditions: Compound concentration 1000.0 nM
# [2] = target: Serine/threonine-protein kinase TAO2 (Homo sapiens) (UniProt Q9UL54); conditions: Compound concentration 1000.0 nM
# [3] = target: Cyclin-dependent kinase 17 (Homo sapiens) (UniProt Q00537); conditions: Compound concentration 1000.0 nM
# [4] = target: 5'-AMP-activated protein kinase catalytic subunit alpha-2 (Homo sapiens) (UniProt P54646); conditions: Compound concentration 1000.0 nM
# [5] = target: Mitogen-activated protein kinase kinase kinase 2 (Homo sapiens) (UniProt Q9Y2U5); conditions: Compound concentration 1000.0 nM
# [6] = target: Dual specificity tyrosine-phosphorylation-regulated kinase 1A (Homo sapiens) (UniProt Q13627); conditions: Compound concentration 1000.0 nM
# [7] = target: Protein kinase C theta type (Homo sapiens) (UniProt Q04759); conditions: Compound concentration 1000.0 nM
# Protein kinase C theta type (Homo sapiens), sequence (Q04759 whole entry, looked up): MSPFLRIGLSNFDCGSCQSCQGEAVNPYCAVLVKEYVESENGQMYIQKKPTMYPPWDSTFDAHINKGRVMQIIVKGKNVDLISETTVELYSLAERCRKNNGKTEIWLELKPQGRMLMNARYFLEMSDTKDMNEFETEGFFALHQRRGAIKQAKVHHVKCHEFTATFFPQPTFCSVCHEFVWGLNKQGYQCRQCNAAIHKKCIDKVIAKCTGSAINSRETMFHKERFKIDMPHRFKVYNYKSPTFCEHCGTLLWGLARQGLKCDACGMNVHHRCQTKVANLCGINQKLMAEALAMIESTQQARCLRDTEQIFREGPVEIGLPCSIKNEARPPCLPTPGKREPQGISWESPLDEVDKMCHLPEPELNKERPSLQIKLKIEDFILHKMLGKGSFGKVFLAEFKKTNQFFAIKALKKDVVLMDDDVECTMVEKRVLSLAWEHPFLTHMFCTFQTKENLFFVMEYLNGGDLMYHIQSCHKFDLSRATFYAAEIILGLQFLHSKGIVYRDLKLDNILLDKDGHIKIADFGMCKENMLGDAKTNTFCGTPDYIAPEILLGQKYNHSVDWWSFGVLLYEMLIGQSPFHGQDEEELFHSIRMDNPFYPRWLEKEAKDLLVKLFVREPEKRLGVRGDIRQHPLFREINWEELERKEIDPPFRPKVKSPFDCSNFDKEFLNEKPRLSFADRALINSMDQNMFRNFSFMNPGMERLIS
# [8] = target: MAP kinase-interacting serine/threonine-protein kinase 2 (Homo sapiens) (UniProt Q9HBH9); conditions: Compound concentration 1000.0 nM
# [9] = system: Phosphatidylinositol 4,5-bisphosphate 3-kinase catalytic subunit alpha isoform (Homo sapiens), P42336 [H1047Y]; conditions: Compound concentration 1000.0 nM
# [10] = target: Ribosomal protein S6 kinase alpha-6 (Homo sapiens) (UniProt Q9UK32); conditions: Compound concentration 1000.0 nM
# [11] = target: Cyclin-dependent kinase 14 (Homo sapiens) (UniProt O94921); conditions: Compound concentration 1000.0 nM
# [12] = target: GABA-A receptor; anion channel (Rattus norvegicus) (UniProt O09028+P15431+P18506+P18508+P19969+P20236+P23574+P23576+P28471+P28473+P30191+P62813+P63079+P63138+Q91ZM7+Q9ES14); conditions: Compound concentration 10.0 uM
# [13] = target: Serine/threonine-protein kinase PAK 2 (Homo sapiens) (UniProt Q13177); conditions: Compound concentration 1000.0 nM
# [14] = system: Proto-oncogene tyrosine-protein kinase receptor Ret (Homo sapiens), P07949 [V804M]; conditions: Compound concentration 1000.0 nM
# [15] = target: Tyrosine-protein kinase ITK/TSK (Homo sapiens) (UniProt Q08881); conditions: Compound concentration 1000.0 nM
# [16] = target: Ephrin type-A receptor 5 (Homo sapiens) (UniProt P54756); conditions: Compound concentration 1000.0 nM
# [17] = target: Maternal embryonic leucine zipper kinase (Homo sapiens) (UniProt Q14680); conditions: Compound concentration 1000.0 nM
# Maternal embryonic leucine zipper kinase (Homo sapiens), sequence (Q14680 whole entry, looked up): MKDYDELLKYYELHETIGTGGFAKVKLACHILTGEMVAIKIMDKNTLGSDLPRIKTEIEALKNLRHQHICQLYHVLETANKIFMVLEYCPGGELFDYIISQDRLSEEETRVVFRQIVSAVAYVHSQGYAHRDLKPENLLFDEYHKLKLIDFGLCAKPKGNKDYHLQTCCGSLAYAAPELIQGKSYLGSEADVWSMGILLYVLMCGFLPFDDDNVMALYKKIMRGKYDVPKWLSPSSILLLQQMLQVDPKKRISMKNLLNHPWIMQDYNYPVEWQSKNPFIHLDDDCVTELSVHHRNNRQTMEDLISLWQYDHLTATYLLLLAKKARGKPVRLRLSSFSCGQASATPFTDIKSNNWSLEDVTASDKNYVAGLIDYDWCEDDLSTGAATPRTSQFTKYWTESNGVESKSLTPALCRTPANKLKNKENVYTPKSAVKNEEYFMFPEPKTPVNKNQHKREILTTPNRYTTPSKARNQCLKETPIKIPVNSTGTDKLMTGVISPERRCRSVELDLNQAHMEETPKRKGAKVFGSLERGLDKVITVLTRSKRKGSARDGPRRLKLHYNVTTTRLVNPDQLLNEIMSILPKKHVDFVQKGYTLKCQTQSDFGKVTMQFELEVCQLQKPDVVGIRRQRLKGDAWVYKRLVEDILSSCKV
# [18] = target: Phosphatidylinositol 4-kinase beta (Homo sapiens) (UniProt Q9UBF8); conditions: Compound concentration 1000.0 nM
# [19] = target: Protein-tyrosine kinase 6 (Homo sapiens) (UniProt Q13882); conditions: Compound concentration 1000.0 nM
# Protein-tyrosine kinase 6 (Homo sapiens), sequence (Q13882 whole entry, looked up): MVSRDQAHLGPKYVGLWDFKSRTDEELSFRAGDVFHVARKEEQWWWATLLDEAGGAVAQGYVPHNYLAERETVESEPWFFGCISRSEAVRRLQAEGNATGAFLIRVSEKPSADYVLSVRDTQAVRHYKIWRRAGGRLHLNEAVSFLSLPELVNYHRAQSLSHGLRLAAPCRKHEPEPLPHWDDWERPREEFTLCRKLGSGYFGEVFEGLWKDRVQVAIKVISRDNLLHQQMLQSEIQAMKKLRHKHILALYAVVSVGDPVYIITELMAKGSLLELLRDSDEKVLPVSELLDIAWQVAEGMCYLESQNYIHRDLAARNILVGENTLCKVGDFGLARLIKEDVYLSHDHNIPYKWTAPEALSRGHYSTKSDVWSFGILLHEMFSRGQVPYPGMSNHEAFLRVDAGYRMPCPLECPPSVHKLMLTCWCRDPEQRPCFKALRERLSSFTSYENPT
# [20] = target: Serine/threonine-protein kinase NIM1 (Homo sapiens) (UniProt Q8IY84); conditions: Compound concentration 1000.0 nM
# Serine/threonine-protein kinase NIM1 (Homo sapiens), sequence (Q8IY84 whole entry): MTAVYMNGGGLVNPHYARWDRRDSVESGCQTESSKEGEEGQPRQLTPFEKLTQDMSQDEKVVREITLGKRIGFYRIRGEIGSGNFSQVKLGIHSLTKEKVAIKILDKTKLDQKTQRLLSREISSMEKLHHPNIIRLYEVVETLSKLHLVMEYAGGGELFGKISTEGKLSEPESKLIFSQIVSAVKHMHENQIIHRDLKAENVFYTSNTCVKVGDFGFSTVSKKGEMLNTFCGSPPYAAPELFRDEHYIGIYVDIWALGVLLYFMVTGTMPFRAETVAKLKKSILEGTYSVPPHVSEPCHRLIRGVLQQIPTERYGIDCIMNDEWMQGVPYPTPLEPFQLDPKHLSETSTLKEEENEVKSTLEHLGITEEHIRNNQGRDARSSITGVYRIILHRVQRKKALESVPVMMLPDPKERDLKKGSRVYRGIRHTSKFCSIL
# [21] = target: Membrane-associated tyrosine- and threonine-specific cdc2-inhibitory kinase (Homo sapiens) (UniProt Q99640); conditions: Compound concentration 1000.0 nM
# [22] = system: ALK tyrosine kinase receptor (Homo sapiens), Q9UM73 [L1196M]; conditions: Compound concentration 1000.0 nM
# [23] = target: Ribosomal protein S6 kinase alpha-1 (Homo sapiens) (UniProt Q15418); conditions: Compound concentration 1000.0 nM
# Ribosomal protein S6 kinase alpha-1 (Homo sapiens), sequence (Q15418 whole entry): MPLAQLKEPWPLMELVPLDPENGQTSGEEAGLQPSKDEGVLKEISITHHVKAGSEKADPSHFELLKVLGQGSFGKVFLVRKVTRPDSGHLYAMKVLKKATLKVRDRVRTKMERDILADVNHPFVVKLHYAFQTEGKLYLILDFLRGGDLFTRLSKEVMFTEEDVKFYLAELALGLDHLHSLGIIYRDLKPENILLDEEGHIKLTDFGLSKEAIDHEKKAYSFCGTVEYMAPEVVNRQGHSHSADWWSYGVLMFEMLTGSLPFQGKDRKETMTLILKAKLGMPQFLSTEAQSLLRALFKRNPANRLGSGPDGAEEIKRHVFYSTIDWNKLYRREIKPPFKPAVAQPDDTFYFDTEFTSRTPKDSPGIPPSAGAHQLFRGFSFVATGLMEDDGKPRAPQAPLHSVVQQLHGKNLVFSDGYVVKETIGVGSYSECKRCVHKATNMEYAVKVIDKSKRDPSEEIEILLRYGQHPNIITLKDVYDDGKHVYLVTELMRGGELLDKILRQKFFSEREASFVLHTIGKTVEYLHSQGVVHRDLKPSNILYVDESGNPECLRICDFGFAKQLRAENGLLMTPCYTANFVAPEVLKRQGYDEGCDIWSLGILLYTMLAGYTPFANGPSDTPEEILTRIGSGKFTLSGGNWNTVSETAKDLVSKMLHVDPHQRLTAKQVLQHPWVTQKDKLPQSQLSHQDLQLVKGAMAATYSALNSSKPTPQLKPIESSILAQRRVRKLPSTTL
# NCI-H146 = test: CellTiter-Glo Luminescent Cell Viability Assay (BCL-XL dependent cell line H146); type: functional, cell-based; conditions: Homo sapiens
# [24] = target: Mitogen-activated protein kinase kinase kinase 19 (Homo sapiens) (UniProt Q56UN5); conditions: Compound concentration 1000.0 nM
# [25] = target: Receptor tyrosine-protein kinase erbB-4 (Homo sapiens) (UniProt Q15303); conditions: Compound concentration 1000.0 nM
# [26] = target: Mast/stem cell growth factor receptor Kit (Homo sapiens) (UniProt P10721); conditions: Compound concentration 1000.0 nM
# [27] = system: Phosphatidylinositol 4,5-bisphosphate 3-kinase catalytic subunit alpha isoform (Homo sapiens), P42336 [M1043I]; conditions: Compound concentration 1000.0 nM
# [28] = target: Serine/threonine-protein kinase 36 (Homo sapiens) (UniProt Q9NRP7); conditions: Compound concentration 1000.0 nM
# [29] = target: Mitogen-activated protein kinase kinase kinase 3 (Homo sapiens) (UniProt Q99759); conditions: Compound concentration 1000.0 nM
# [30] = target: Serine/threonine-protein kinase Sgk1 (Homo sapiens) (UniProt O00141); conditions: Compound concentration 1000.0 nM
# [31] = target: Serine/threonine-protein kinase ULK1 (Homo sapiens) (UniProt O75385); conditions: Compound concentration 1000.0 nM
# Serine/threonine-protein kinase ULK1 (Homo sapiens), sequence (O75385 whole entry): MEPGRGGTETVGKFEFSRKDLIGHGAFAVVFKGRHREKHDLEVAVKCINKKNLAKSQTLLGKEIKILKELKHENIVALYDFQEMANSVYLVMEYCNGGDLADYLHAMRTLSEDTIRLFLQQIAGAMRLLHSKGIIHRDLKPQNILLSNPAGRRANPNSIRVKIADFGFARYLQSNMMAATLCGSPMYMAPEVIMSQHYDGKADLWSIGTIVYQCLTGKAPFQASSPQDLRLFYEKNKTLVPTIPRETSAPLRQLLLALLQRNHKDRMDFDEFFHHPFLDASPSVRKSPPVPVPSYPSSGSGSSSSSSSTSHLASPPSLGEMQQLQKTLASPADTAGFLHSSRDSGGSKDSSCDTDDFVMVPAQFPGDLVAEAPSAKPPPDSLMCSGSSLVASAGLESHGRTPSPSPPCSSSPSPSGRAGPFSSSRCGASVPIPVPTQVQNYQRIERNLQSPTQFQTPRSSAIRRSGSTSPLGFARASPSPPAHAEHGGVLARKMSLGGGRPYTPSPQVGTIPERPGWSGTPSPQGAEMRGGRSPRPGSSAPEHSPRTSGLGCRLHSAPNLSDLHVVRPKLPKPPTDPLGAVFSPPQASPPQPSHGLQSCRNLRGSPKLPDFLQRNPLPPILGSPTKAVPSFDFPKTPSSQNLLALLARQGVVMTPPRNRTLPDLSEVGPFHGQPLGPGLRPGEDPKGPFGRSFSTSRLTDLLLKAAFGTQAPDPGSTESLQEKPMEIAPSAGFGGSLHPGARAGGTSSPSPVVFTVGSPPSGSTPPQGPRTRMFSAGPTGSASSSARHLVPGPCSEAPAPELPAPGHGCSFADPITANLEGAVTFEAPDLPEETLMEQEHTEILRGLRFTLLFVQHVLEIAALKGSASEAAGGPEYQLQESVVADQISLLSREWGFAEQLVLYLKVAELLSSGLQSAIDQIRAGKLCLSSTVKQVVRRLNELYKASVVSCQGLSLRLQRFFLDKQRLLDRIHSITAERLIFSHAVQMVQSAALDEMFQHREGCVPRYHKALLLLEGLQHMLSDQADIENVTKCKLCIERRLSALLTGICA
# [32] = target: Mitogen-activated protein kinase kinase kinase 10 (Homo sapiens) (UniProt Q02779); conditions: Compound concentration 1000.0 nM
# [33] = system: Epidermal growth factor receptor (Homo sapiens), P00533 [UNDEFINED MUTATION]; conditions: Compound concentration 1000.0 nM
# [34] = target: Activin receptor type-1 (Homo sapiens) (UniProt Q04771); conditions: Compound concentration 1000.0 nM
# [35] = target: Serine/threonine-protein kinase PLK4 (Homo sapiens) (UniProt O00444); conditions: Compound concentration 1000.0 nM
# Serine/threonine-protein kinase PLK4 (Homo sapiens), sequence (O00444 whole entry): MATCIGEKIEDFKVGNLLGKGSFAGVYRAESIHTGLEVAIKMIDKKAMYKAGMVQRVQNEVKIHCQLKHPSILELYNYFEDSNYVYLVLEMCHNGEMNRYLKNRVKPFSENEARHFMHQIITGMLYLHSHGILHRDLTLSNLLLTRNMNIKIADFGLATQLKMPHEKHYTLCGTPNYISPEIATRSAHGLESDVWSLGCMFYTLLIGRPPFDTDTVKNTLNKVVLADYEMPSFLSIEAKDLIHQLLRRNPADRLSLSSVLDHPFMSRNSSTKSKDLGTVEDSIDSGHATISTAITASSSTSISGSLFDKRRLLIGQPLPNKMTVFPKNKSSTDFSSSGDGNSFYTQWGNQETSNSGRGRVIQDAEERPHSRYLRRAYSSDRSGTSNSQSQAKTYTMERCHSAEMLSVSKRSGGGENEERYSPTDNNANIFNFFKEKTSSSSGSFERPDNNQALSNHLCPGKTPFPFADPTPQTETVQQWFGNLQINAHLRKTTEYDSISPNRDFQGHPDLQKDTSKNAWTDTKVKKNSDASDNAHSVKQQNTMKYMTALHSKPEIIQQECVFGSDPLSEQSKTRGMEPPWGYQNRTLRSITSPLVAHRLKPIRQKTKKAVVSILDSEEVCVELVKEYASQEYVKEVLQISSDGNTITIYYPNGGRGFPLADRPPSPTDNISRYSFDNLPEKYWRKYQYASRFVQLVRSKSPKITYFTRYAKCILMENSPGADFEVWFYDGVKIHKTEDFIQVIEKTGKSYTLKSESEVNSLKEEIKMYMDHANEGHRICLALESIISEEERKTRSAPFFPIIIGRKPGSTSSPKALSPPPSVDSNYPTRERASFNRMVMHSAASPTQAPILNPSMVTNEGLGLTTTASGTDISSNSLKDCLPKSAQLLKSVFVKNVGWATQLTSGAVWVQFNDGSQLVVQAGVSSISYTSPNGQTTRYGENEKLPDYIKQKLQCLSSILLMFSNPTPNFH
# [36] = target: Ribosomal protein S6 kinase alpha-4 (Homo sapiens) (UniProt O75676); conditions: Compound concentration 1000.0 nM
# [37] = target: Serine/threonine-protein kinase VRK2 (Homo sapiens) (UniProt Q86Y07); conditions: Compound concentration 1000.0 nM
compound,measurement,setting,value
CN(C)CC#Cc1ccc(OCCCc2sc(N3CCc4cccc(C(=O)Nc5nc6ccccc6s5)c4C3)nc2C(=O)O)c(F)c1 [A-1155463],residual activity,[1],85%
same,residual activity,[2],100%
same,residual activity,[3],99%
same,residual activity,[4],99%
same,residual activity,[5],75%
same,residual activity,[6],88%
same,residual activity,[7],92%
same,residual activity,[8],75%
same,residual activity,[9],100%
same,residual activity,[10],97%
same,residual activity,[11],100%
same,inhibition,[12],11.3%
same,residual activity,[13],93%
same,residual activity,[14],98%
same,residual activity,[15],100%
same,residual activity,[16],98%
same,residual activity,[17],78%
same,residual activity,[18],100%
same,residual activity,[19],96%
same,residual activity,[20],100%
same,residual activity,[21],71%
same,residual activity,[22],100%
same,residual activity,[23],93%
same,EC50,NCI-H146,70 nM (active)
same,residual activity,[24],95%
same,residual activity,[25],99%
same,residual activity,[26],85%
same,residual activity,[27],96%
same,residual activity,[28],99%
same,residual activity,[29],90%
same,residual activity,[30],100%
same,residual activity,[31],100%
same,residual activity,[32],100%
same,residual activity,[33],100%
same,residual activity,[34],100%
same,residual activity,[35],77%
same,residual activity,[36],100%
same,residual activity,[37],100%
